Source: patent US20080234311A1, “IMMUNOASSAY FOR DETECTION AND QUANTIFICATION OF AMYLOID-beta PEPTIDES” (priority 2006, published 2008)

Tested on: Aβ1-40 production in rat cortical neurons
Test: Aβ1-40 level in conditioned medium of rat cortical neurons (rodent Aβ immunoassay)
Format: cell-based
Details: rat cortical neurons of 7 days of culture, treated at various concentrations for 7 days (FIG. 2B); read-out: IC50 for reduction of Aβ1-40 level in conditioned medium
Description: Mouse monoclonal antibody specific for the N-terminal of mouse/rat Aβ was immobilized by incubation of 96-well polystyrene plate with 50 ul of the antibody at 4 ug/ml in each well in a coating buffer (0.1 M NaHCO3 pH 8.2) overnight at 4° C. The plates were washed thereafter each step for 3 times with 200 μl/well PBST (PBS with 0.5% Tween-20). The wells were then sequentially incubated with 50 μl/well test samples containing mouse/rat or human Aβ1-40 or Aβ1-42 overnight at 4° C. Primary rabbit antibodies specific for either Aβ1-40 or Aβ1-42 (BioSource International Inc., Camarillo, Calif.) were added to each well at 50 ul/well for a final concentration of 400 ng/ml, and incubated at room temperature. […] The color signal was measured at […] in a spectrophotometer. […] This indicates the specificity of the assay for rodent Aβ The assay detected both mouse/rat Aβ1-40 and Aβ1-42 at levels less than 15 ng/ml (FIG. 1C).
The amount released can be reduced by a γ-secretase inhibitor. […] The cortical neurons of 7 days of culture were treated with gamma-secretase inhibitor L-685,458 at various concentrations for 7 days and the Aβ1-40 level was measured in the conditioned medium. […]
The effect of nicotinic receptor ligands on Aβ production was analyzed by measurement of the Aβ1-40 level in the conditioned media of rat cortical cultures treated with α7 nAChR selective ligands for 7 days. […]

CC(C)C[C@H](NC(=O)[C@H](Cc1ccccc1)C[C@@H](O)[C@H](Cc1ccccc1)NC(=O)OC(C)(C)C)C(=O)N[C@@H](Cc1ccccc1)C(N)=O [L-685,458]
IC50: 431 nM
